Literature values as cited in patent publication US8815898B2, “6,7-disubstituted-sioquinoline derivatives and their use” (Montisera Ltd, priority 2010, dated 2014).

SMILES: c1ccc2c(c1)CCNC2 [TIQ]
- hydroxylated (C4 of the isoquinoline backbone) derivative in the urine (most abundant metabolite in urine, 4-hydroxy derivative of the parent): 2.7%
- excreted in urine unchanged (share excreted in urine unchanged): 76%
- exit the brain unchanged (share of compound leaving the brain unchanged): 90.4%
